Reference: patent publication US20220331348A1, “METHOD OF PREPARING PENTACYCLIC TRITERPENOID SAPONINS AND DRUG COMPOSITION” (CHINA PHARMACEUTICAL UNIVERSITY, priority 2019, published 2022)

What was measured:
[1] = tested on: CCl4-induced hepatic fibrosis mice; experiment: CCl4-induced hepatic fibrosis mice; type: in vivo, mouse; conditions: for MMP2 gene expression / TGF-β gene expression / collagen 1 gene expression: CCl4-induced hepatic fibrosis mice, 5 mg/Kg, n = 8
Method: Animal: 32 C57BL/6J male mice of SPF level with 25 g were purchased from Beijing Vital River Laboratory Animal Technology Co., Ltd. All the animals maintained 12 h alternative circadian rhythm with free access to food.
Reagent: the ginsenoside Ro was purchased from Shanghai Boka Chemistry Technology Co., Ltd; CCl4 was purchased from sigma Company; and sunflower seed oil was purchased from Nanjing Yuanye Biotechnology Co., Ltd.
The mice were randomly divided into 4 groups based on weights: a blank control group (CTL), a model group (CCl4), a ginsenoside Ro low-dosage group (Low) (5 mg/kg) and a ginsenoside Ro high-dosage group (High) (10 mg/kg), totally 4 groups (with 8 mice each).
A modeling mode was that the mice were given with a CCl4-contained sunflower seed oil solution (with a CCl4 content of 25%, v/v) in a dosage of 2mL/kg by intraperitoneal injection, and the mice in the control group were injected with a corresponding dosage of the sunflower seed oil solution two times per week. From experiment day 1 onward, the mice in the control group were given with a CMC-Na solution with the mass fraction of 0.5% intragastrically every day and with sunflower seed oil two times per week by intraperitoneal injection; the mice in the model group were given with the CMC-Na solution with the mass fraction of 0.5% intragastrically every day and with the CCl4-contained sunflower seed oil solution two times per week by intraperitoneal injection; the mice in the ginsenoside Ro low-dosage group (Low) were given with 5 mg/kg of the ginsenoside Ro intragastrically every day and with a CCl4 solution two times per week by intraperitoneal injection; and the mice in the ginsenoside Ro high-dosage group (High) were given with 10 mg/kg of the ginsenoside Ro intragastrically every day and with the CCl4-contained sunflower seed oil solution two times per week by intraperitoneal injection. Administration was conducted for a total of 4 weeks.
The mice were deprived of food but not water for 12 h in advance; and the next morning, blood was taken from eyeballs, the mice were sacrificed, and livers were harvested. Right liver lobule tissues were fixed with 4% paraformaldehyde for HE stained slicing. The rest liver tissues were divided into 3 parts, which were snap-frozen in liquid nitrogen for subsequent detection of other indexes.
Whole blood was left to still standing for 2 h at room temperature, centrifugation was conducted for 15 min at 3000 rpm, and a serum was collected and sent to Pathologic Department of Hospital of Integrated Traditional Chinese and Western Medicine in Jiangsu Province for determination of levels of glutamic oxalacetic transaminase (AST) and glutamic-pyruvic transaminase (ALT) in the serum with a full-automatic biochemical analyzer.
Pretreated tissues were sent to Google Biotechnology Co., Ltd for preparing HE stained slices.
6. Extraction of Liver Tissue RNA and q-PCR Detection Liver tissues preserved at −80° C. were put in the liquid nitrogen, about 10 mg of the liver tissues were quickly dissected out, about 500 μL of a precooled Trizol reagent was added, the tissues were homogenized with the homogenizer and then left to lyse on the ice for 15 min, 100 μL of chloroform was added for vigorous shaking for 15 s, and a product was put on the ice for 10 min and then was subjected to centrifugation for 15 min at 4° C. and 12000 rpm. An upper aqueous phase was transferred to a clean 1.5 mL EP tube, […] of isopropanol was added for RNA precipitation, the EP tube was put on the ice for 10 min and then was subjected to centrifugation for 10 min at 4° C. and 12000 rpm. The supernate was discarded, precipitates were washed one time with 75% ethyl alcohol, a supernate was discarded after centrifugation, and precipitates of
RNA dissolved with the water were treated with 40 mL of DEPC. […]

[2] = tested on: AMPK and mTOR signaling pathways in polycystic kidney epithelial cells; experiment: Western blot of AMPK and proliferation-related signal molecules in polycystic kidney epithelial cells; type: cell-based, human; conditions: 10 μM, 48 h, Western blot (FIG. 16)
Text: Cell and reagent: complete media for human ADPKD cyst lining epithelial cell lines WT9-12 and DMEM were purchased from ATCC Company; fetal calf serums were purchased from Gibco Company; Cell Counting Kit-8 was purchased from DOJINDO Company; Click-iT® EdU Imaging Kits were purchased from Invitrogen™ Thermo Fisher Scientific Company; Caspase -3/CPP32 Colorimetric Assay Kit was purchased from BioVision Company; Annexin V/PI double-staining flow type cell apoptosis detection kits were purchased from Bender Company; and anti-Phospho-(AMPKa, mTOR, p70S6K, 4E-BP1) antibodies were purchased from Cell Signaling Technology Company.
Detection on protein expression with Western blot: cells in the control group and the treatment group (intervening the polycystic kidney epithelial cell with 10 μM of asperosaponin VI for 48 h) were collected, cells were lysed with a RIPA lysate for extraction of total proteins, the concentration of proteins was detected with a BCA method, and […] of sample proteins were taken for sample addition in sequence; after SDS-PAGE electrophoresis, the sample proteins were transferred onto PVDF membranes at a constant current (I=250 mA), were blocked for 1 h with 5% BSA and were incubated for 24 h with different primary antibodies; after the membranes were washed four times with TBST, incubation was conducted for 1.5 h at a normal temperature by using HRP-labeled second antibodies (1:10000); and after the membranes were washed four times with TBST, the proteins were developed with an ECL, and protein bands of various groups were subjected to gray scale analysis with an Image-J gel image analysis software.

[3] = CCl4 mice liver, 5 mg/kg and 10 mg/kg, 4 weeks, q-PCR (FIG. 9)
[4] = CCl4 mice, low-dosage 5 mg/kg and high-dosage 10 mg/kg intragastrically every day, 4 weeks (FIG. 8)

SMILES	MMP2 gene expression [1]	TGF-β gene expression [1]	collagen 1 gene expression [1]	hepatic fibrosis induced by CCl4 ([1]; CCl4 mice, summary in words)	further results
C[C@@H]1CC[C@]2(C(=O)O)CC[C@]3(C)C(=CC[C@@H]4[C@@]5(C)CC[C@H](O[C@@H]6OC[C@H](O)[C@H](O)[C@H]6O)C(C)(C)[C@@H]5CC[C@]43C)[C@@H]2[C@]1(C)O [(XIII), ziyuglycoside II]	7.38 ± 3.48 fold induction compared with the control group	3.03 ± 0.76 fold induction compared with the control group	8.16 ± 3.37 fold induction compared with the control group	effectively inhibit	–
CC1(C)CC[C@]2(C(=O)O[C@@H]3O[C@H](CO[C@@H]4O[C@H](CO)[C@@H](O)[C@H](O)[C@H]4O)[C@@H](O)[C@H](O)[C@H]3O)CC[C@]3(C)C(=CC[C@@H]4[C@@]5(C)CC[C@H](O[C@@H]6OC[C@H](O)[C@H](O)[C@H]6O)[C@@](C)(CO)[C@@H]5CC[C@]43C)[C@@H]2C1 [(II), asperosaponin VI]	–	–	–	–	phosphorylation level of 4E-BP1 [2]: lowered; phosphorylation level of AMPKa [2]: increased; phosphorylation level of mTOR [2]: lowered; phosphorylation level of p70S6K [2]: lowered
C[C@@H]1O[C@@H](O[C@H]2[C@H](O[C@H]3CC[C@@]4(C)[C@@H](CC[C@]5(C)[C@@H]4CC=C4[C@@H]6CC(C)(C)CC[C@]6(C(=O)O)CC[C@]45C)[C@]3(C)CO)OC[C@H](O)[C@@H]2O)[C@H](O)[C@H](O)[C@H]1O [(X), α-hederin]	6.37 ± 5.73 fold induction compared with the control group	2.75 ± 0.99 fold induction compared with the control group	7.93 ± 2.28 fold induction compared with the control group	effectively inhibit	–
C[C@@H]1O[C@@H](O[C@H]2[C@H](O[C@H]3CC[C@@]4(C)[C@@H](CC[C@]5(C)[C@@H]4CC=C4[C@@H]6CC(C)(C)CC[C@]6(C(=O)O[C@@H]6O[C@H](CO[C@@H]7O[C@H](CO)[C@@H](O[C@@H]8O[C@@H](C)[C@H](O)[C@@H](O)[C@H]8O)[C@H](O)[C@H]7O)[C@@H](O)[C@H](O)[C@H]6O)CC[C@]45C)[C@]3(C)CO)OC[C@H](O)[C@@H]2O)[C@H](O)[C@H](O)[C@H]1O [(XI), hederacoside C]	7.65 ± 4.03 fold induction compared with the control group	2.96 ± 1.01 fold induction compared with the control group	8.07 ± 3.27 fold induction compared with the control group	effectively inhibit	–
CC1(C)CC[C@]2(C(=O)O[C@@H]3O[C@H](CO)[C@@H](O)[C@H](O)[C@H]3O)CC[C@]3(C)C(=CC[C@@H]4[C@@]5(C)CC[C@H](O[C@@H]6O[C@H](C(=O)O)[C@@H](O)[C@H](O)[C@H]6O[C@@H]6O[C@H](CO)[C@@H](O)[C@H](O)[C@H]6O)C(C)(C)[C@@H]5CC[C@]43C)[C@@H]2C1 [(I), ginsenoside Ro]	–	–	–	significantly inhibit	mRNA expression level of -SMA [1, 3]: significantly lowered; mRNA expression level of MMP2 [1, 3]: significantly lowered; mRNA expression level of TGF [1, 3]: significantly lowered; mRNA expression level of collagen 1 [1, 3]: significantly lowered; level of the ALT in the serum [1, 4]: significantly lowered; level of the AST in the serum [1, 4]: significantly lowered; inflammatory responses of hepatic fibrosis animal models ([1]; CCl4 mice, summary in words): significantly inhibit
C[C@@H]1CC[C@]2(C(=O)O[C@@H]3O[C@H](CO)[C@@H](O)[C@H](O)[C@H]3O)CC[C@]3(C)C(=CC[C@@H]4[C@@]5(C)CC[C@H](O[C@@H]6OC[C@H](O)[C@H](O)[C@H]6O)C(C)(C)[C@@H]5CC[C@]43C)[C@@H]2[C@]1(C)O [(XII), ziyuglycoside I]	8.38 ± 3.86 fold induction compared with the control group	2.91 ± 1.10 fold induction compared with the control group	7.65 ± 2.43 fold induction compared with the control group	effectively inhibit	–
